Several values for one entry are separate records, joined by “and”; a condition that tells them apart may be missing. Equal values may be shown once. Read-outs that look alike come from different tables or passages of the source. Values belong to the compound of their own block, whether it stands above or below them.
Key:
[1] = 0-24h, oral, cited from earlier work
[2] = Pharmacokinetics, dried blood spot LC-MS/MS, mice with SW620 tumors; format: in vivo; conditions: for Tmax / AUC(0-t) / Cmax: Swiss Nu/nu, mouse, whole blood (dried blood spot), po, 10 mg/kg, regorafenib 30, vemurafenib 75, GDC-0994 10 mg/kg; for AUC(0-t) / Cmax: whole blood, mean ± SD; for AUC(0-t): oral, read-out: AUC0-24h
Method: The pharmacokinetic (PK) study was performed using the dried blood spot method. Mice were treated with CTRL, ODCs, and corresponding monotherapies as described above. To determine the disposition in blood in the first 24h, blood samples (5 µL/mouse) were collected from the tail vein (n = 4 mice) at 2h, 4h, 8h, and 24h time points and transferred onto paper (a filter paper 903 protein saver card from Whatman (MA, USA)). A disk with the entire spot was punched from the paper card and transferred to the HPLC vial tube. Hundred µL of MeOH containing a mix of internal standards was added, and the tube was vortex‐mixed for about 1 min before injecting 10 µL into the LC‐MS/MS system. The LC‐MS/MS system consisted of an API 4,000 triple quadrupole mass spectrometer (AB sciex, Concord, ON, Canada) controlled by analyst 1.6.1 software. The mass spectrometer was operated in the multiple reaction monitoring (MRM) mode with positive electrospray ionization. The instrument was coupled with an Agilent series 1100 (Waldbronn, Germany) LC system. Chromatography was performed on a Phenomenex Kinetex C18 analytical column (50 mm x 2.1 mm, 2.6 um; Torrance, CA, USA). The flow rate was 0.5 mL/min using gradient elution conditions. The method was fully validated before application to this pharmacokinetic study.

SW620 tumors = assay: Subcutaneous xenograft tumor growth; format: in vivo, Swiss nu/nu mice
Method: All procedures including animal use were performed in accordance with the Institutional Ethical Committee of Animal Care in Geneva and the Swiss Cantonal Veterinary Office (Authorization number GE‐136‐19). Briefly, female and male Swiss nu/nu mice aged 6–8 weeks were obtained from Charles River (Écully, France). For subcutaneous xenografts mice were inoculated in the left flank with 5x10^6 DLD1 or SW620 cells suspended in 100 µL of cell culture medium, supplemented with 1% FBS. Treatment was initiated when palpable tumors had formed (approximately 30 mm^3) on day 4 for DLD1 and day 5 for the SW620 model.
Treatment was initiated once tumor growth was confirmed with bioluminescence measurements. Drugs were administered through oral gavage based on average body weight of the males (100 µL/mouse) and females (80 µL/mouse) at various concentrations, see Tables S10 and S11.
Solution A: step (1) 30% PEG 400 + 5% propylene glycol + 0.5% Tween 80 and (2) 64.5% sterile H2O. Solution B: step (1) 10% DMSO, (2) 30% PEG 300 + 5% Tween 80 and (3) 55% sterile H2O. Vemurafenib was prepared 2x concentrated (half or three/sixth of total solution), and the remaining drugs were prepared 6x concentrated (one/sixth of total solution), after which drugs were diluted to prepare 1x drug concentrations for the ODC or single drugs using the other drugs or complete solvent solutions without drugs for lower concentrations. FOLFOX was administered as 6 mg/kg oxaliplatin two hours before administration of 90 mg/kg leucovorin and 50 mg/kg (DLD1) or 25 mg/kg (SW620) 5‐fluorouracil at day 1 and a repeat of 5‐fluorouracil dosing on day 2.
The Bliss independence model can be used to evaluate the drug interaction potential of a drug mixture. The model is based on the principle that each drug has an independent drug mechanism of action, but all contribute to a common result (e.g., cell death or tumor volume inhibition). The model is based on the probability theory and requires the drug activity of each drug at the selected dose to predict the inhibition rate (IR) at additive doses. For in vivo tumor volume results, we predicted the IR based on the fraction of tumor volume remaining after single‐drug treatment of each of the drugs vs 100% CTRL (F1,2,3,4), using the following formula: IR = […].

[3] = Serum and intratumor drug concentration at experimental endpoint, SW620 model; format: in vivo, mice; conditions: for concentration at 1 h / Kp at 1 h: Swiss Nu/nu, mouse, oral; for concentration at 1 h: 1h post-treatment at endpoint (day 19); for Kp at 1 h: tumor vs serum, read-out: ratio tumor vs serum; for Kp at 1 h / ratio ODC vs single drug: SW620 model
Method: At the experimental endpoint, plasma and tumors were collected 1h post‐treatment and part of the tumor tissue was used to determine the intratumor drug concentrations. Plasma and tumor samples were analyzed using the same LC‐MS/MS method used for drug determination in DBS. Before analysis, tumor tissues were homogenized in a 1 mL mixture of water/acetonitrile (30/70). Hundred uL of homogenates were transferred into new tubes and 50 µL of acetonitrile, as well as 50 µL of a mix of internal standards in MeOH were added. Tubes were vortexed and centrifuged for 10 min at 9,000 rpm. The supernatant (100 µL) was evaporated under nitrogen and reconstituted in 100 µL of acetonitrile with 0.1% formic acid/water with 0.1% formic acid (30/70). 10 µL was then injected into the LC‐MS/MS system. Plasma samples were spotted onto the same paper used for whole blood analysis and were extracted and analyzed using the same methods as used for DBS.

[4] = Clinical plasma pharmacokinetics in patients, plasma concentration limit calculation; format: in vivo; conditions: average plasma concentration calculated from AUC0-24h in patients
Method: To select for clinically relevant doses, the clinically attainable drug concentration measured in the blood plasma of patients after treatment is used to calculate the concentration limit for in vitro experiments. […] The average drug concentration is calculated from the AUC0–24h and is implemented as the plasma concentration limit (PCL) which drug dose selection must remain below for in vitro experiments. If a drug is FDA approved, the AUC0–24h selected is the one corresponding to the recommended dose in clinical practice. If a drug is in clinical trials, the AUC0–24h selected is the one corresponding to the maximum tolerated dose in early stage clinical trials. Note, experiments were conducted with the most current PCL calculated from the AUC0–24h information available at the start of experiments (December 2017), see Table S4.

[5] = given as part of SW620-specific ODC
[6] = GDC-0994 10 mg/kg, Exp 6, Day 20
[7] = GDC-0994 10 mg/kg, Exp 8, Day 19
[8] = GDC-0994 20 mg/kg, Exp 4, Day 22

Structure (SMILES): Cn1c(=O)n(-c2ccc(C(C)(C)C#N)cc2)c2c3cc(-c4cnc5ccccc5c4)ccc3ncc21 [BEZ-235]
- AUC ([1]; 400 mg/kg once daily, ref 16): 741.3 ng·h/mL
- AUC ([1]; 400 mg/kg once daily, ref 17): 1404.4 ng·h/mL

- Tmax [2, 5]: 2 h
- AUC(0-t) [2, 5]: 45000 ± 9090 ng·h/mL
- Cmax [2, 5]: 6610 ± 1110 ng/mL
- Tmax ([2]; mono): 2 h
- AUC(0-t) ([2]; mono): 31600 ± 4740 ng·h/mL
- Cmax ([2]; mono): 6090 ± 1930 ng/mL
- increase of AUC as part of the ODC vs single-drug treatment ([2]; mice bearing SW620 tumors, AUC0-24h): 1.4 x
- concentration at 1 h ([3]; serum, 10 mg/kg, as part of ODC, regorafenib 30, selumetinib 0.2, vemurafenib 75, GDC-0994 10 mg/kg, read-out: concentration serum): 19400 ± 9390 ng/mL
- concentration at 1 h ([3]; serum, 10 mg/kg, single drug, regorafenib 30, selumetinib 0.2, vemurafenib 75, GDC-0994 10 mg/kg, read-out: concentration serum): 15900 ± 9070 ng/mL
- concentration at 1 h ([3]; tumor (SW620), as part of ODC, SW620 tumor, doses as E164, read-out: concentration tumor): 5560 ± 3000 ng/g
- concentration at 1 h ([3]; tumor (SW620), single drug, SW620 tumor, doses as E164, read-out: concentration tumor): 12700 ± 2870 ng/g
- Kp at 1 h ([3]; as part of ODC): 0.29
- Kp at 1 h ([3]; single drug): 0.8
- ratio ODC vs single drug ([3]; serum): 1.22
- ratio ODC vs single drug ([3]; tumor): 0.44
- PCL (plasma concentration limit) [4]: 2.02 µM and 2.0 µM
Structure (SMILES): Cn1nccc1Nc1nccc(-c2ccn([C@H](CO)c3ccc(Cl)c(F)c3)c(=O)c2)n1 [GDC-0994, (S)-1-(1-(4-Chloro-3-fluorophenyl)-2-hydroxyethyl)-4-(2-((1-methyl-1H-pyrazol-5-yl)amino)pyrimidin-4-yl)pyridin-2(1H)-one]
- % CTRL (tumor volume) (SW620 tumors; [6]): 56 33 15 % CTRL
- Volume (SW620 tumors; [6]): 290 170 76 mm^3
- % CTRL (tumor volume) (SW620 tumors; [7]): 56 18 7 % CTRL
- Volume (SW620 tumors; [7]): 354 114 46 mm^3
- % CTRL (tumor volume) (SW620 tumors; [8]): 62 31 22 % CTRL
- Volume (SW620 tumors; [8]): 301 148 105 mm^3

- PCL (plasma concentration limit) [4]: 0.43 µM and 0.4 µM
Structure (SMILES): CC1(COc2ccc3c(c2)ncn3-c2ccc3cccc(N4CCC(N)CC4)c3n2)COC1 [crenolanib]
- AUC ([1]; 100 mg/kg twice daily): 3200 ng·h/mL
- AUC ([1]; 200 mg/kg once daily): 4610 ng·h/mL

- PCL (plasma concentration limit) [4]: 8.31 µM and 8.3 µM
Structure (SMILES): Clc1ccc(Nc2nnc(Cc3ccncc3)c3ccccc23)cc1 [vatalanib]
- AUC ([1]; 1,000 mg/kg once daily): 52900 ng·h/mL
- AUC ([1]; 1,200 mg/kg once daily): 69200 ng·h/mL

- PCL (plasma concentration limit) [4]: 0.19 µM and 0.2 µM
Structure (SMILES): O=C(CCCCCCC(=O)Nc1ccccc1)NO [vorinostat]
- AUC ([1]; 200 mg/kg twice daily): 4.61 µM·h
